Substitutions are numbered along the chain they refer to. Calls of active or inactive are those of the source.
Legend:
[1] = molecular target: T1, Protein RecA (Escherichia coli K-12) (UniProt P0A7G6); assay: Inhibition of Escherichia coli RecA-mediated DNA strand exchange at 10 to 100 microM using pBSK (+) gapped and linear dsDNA substrates by joint molecule formation assay
T1 sequence (whole entry): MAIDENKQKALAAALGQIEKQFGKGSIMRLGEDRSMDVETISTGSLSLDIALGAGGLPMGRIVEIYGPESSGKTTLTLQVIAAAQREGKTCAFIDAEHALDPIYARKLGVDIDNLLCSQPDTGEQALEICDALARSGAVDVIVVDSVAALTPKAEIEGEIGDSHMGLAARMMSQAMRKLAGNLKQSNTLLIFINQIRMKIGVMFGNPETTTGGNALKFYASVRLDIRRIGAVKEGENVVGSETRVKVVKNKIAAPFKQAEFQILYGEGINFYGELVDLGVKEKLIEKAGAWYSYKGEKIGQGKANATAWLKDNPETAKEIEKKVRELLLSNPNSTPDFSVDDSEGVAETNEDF

[2] = molecular target: T1, Protein RecA (Escherichia coli K-12); assay: Inhibition of Escherichia coli RecA-mediated DNA branch migration at 10 to 100 microM using [32P]-labeled 5'-joint molecules after 8 hrs by branch migration assay
[3] = molecular target: T1, Protein RecA (Escherichia coli K-12); assay: Binding affinity to Escherichia coli RecA at 50 microM by SPR method
HEK-GFP [4] = assay: Effect on GFP expression in HEK-GFP cells transfected with pMX-GFP plasmid by Western blotting; type: functional, cell-based; details: Homo sapiens
HEK-GFP [5] = assay: Effect on I-SceI expression in HEK-GFP cells by Western blotting; type: functional, cell-based; details: Homo sapiens
HEK-GFP [6] = assay: Effect on RAD51 expression in HEK-GFP cells by Western blotting; type: functional, cell-based; details: Homo sapiens
[7] = Lipophilicity, log P of the compound; type: physicochemical; details: octanol/water
MEF [8] = assay: Toxicity in MEF cells assessed as cell viability at 5 uM by incubated for 1 hr by clonogenic survival assay; type: cell-based; details: mouse
MEF [9] = assay: Toxicity in Tp53-/- MEF cells assessed as cell viability at 5 uM by incubated for 1 hr by clonogenic survival assay; type: cell-based; details: mouse
[10] = molecular target: T2, DNA repair protein RAD51 homolog 1 (Homo sapiens) (UniProt Q06609); details: 20 uM
T2 sequence (whole entry): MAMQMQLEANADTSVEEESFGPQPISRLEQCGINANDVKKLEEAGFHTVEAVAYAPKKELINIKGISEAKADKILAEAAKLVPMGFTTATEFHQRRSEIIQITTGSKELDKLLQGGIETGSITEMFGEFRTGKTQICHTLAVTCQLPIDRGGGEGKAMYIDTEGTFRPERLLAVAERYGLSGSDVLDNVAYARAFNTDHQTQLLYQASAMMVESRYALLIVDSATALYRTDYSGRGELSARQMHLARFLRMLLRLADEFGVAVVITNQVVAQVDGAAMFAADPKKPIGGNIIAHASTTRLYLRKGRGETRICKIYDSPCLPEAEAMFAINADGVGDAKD
Description: Inhibition of human RAD51-ssDNA filament formation at 20 uM added to free RAD51 prior to filament formation by D-loop formation assay

[11] = molecular target: T2, DNA repair protein RAD51 homolog 1 (Homo sapiens); details: 25 uM
Description: Inhibition of ssDNA binding to human RAD51 assessed as reduction in RAD51-90-mer ssDNA complex formation at 25 uM by EMSA method

[12] = molecular target: T2, DNA repair protein RAD51 homolog 1 (Homo sapiens); details: 25 uM; remark: listed apart in the source
Description: Inhibition of human RAD51 ATPase activity at 25 uM by ATP hydrolysis assay

[13] = molecular target: T2, DNA repair protein RAD51 homolog 1 (Homo sapiens); details: 200 uM
Description: Inhibition of human RAD51 oligomerization at 200 uM by gel filtration method

[14] = molecular target: T2, DNA repair protein RAD51 homolog 1 (Homo sapiens); details: 20 uM; remark: listed apart in the source
Description: Inhibition of dsDNA binding to human RAD51-ssDNA filament assessed as reduction in coaggregation formation at 20 uM in presence of 50 mM NaCl by dsDNA coaggregation assay

[15] = molecular target: T2, DNA repair protein RAD51 homolog 1 (Homo sapiens); details: HEK293, 25 uM
Description: Inhibition of DNA binding to human RAD51 in irradiated HEK cells assessed as reduction in RAD51 foci formation at 25 uM by fluorescence microscopy relative to untreated control

[16] = molecular target: T3, DNA repair protein RAD51 homolog 1 (Mus musculus) (UniProt Q08297); details: MEF, 5 uM
T3 sequence (whole entry): T2 sequence (whole entry) with N10S, F46Y, A76T, A194G
Description: Inhibition of RAD51 in Tp53-/- MEF cells assessed as potentiation of 32 uM cisplatin-induced cytotoxicity at 5 uM incubated for 1 hr by clonogenic survival assay relative to untreated control

[17] = molecular target: T3, DNA repair protein RAD51 homolog 1 (Mus musculus); details: MEF, 5 uM; remark: listed apart in the source
Description: Inhibition of RAD51 in Tp53-/- MEF cells assessed as potentiation of 1 uM MMC-induced cytotoxicity at 5 uM incubated for 1 hr by clonogenic survival assay relative to untreated control

[18] = molecular target: T2, DNA repair protein RAD51 homolog 1 (Homo sapiens); details: HEK293, 5 uM
Description: Inhibition of RAD51 in HEK cells assessed as potentiation of cisplatin-induced cytotoxicity at 5 uM in presence of RAD51 siRNA transfected 40 hrs before compound and cisplatin addition by clonogenic survival assay relative to untreated control

[19] = molecular target: T2, DNA repair protein RAD51 homolog 1 (Homo sapiens); details: HEK293, 5 uM; remark: listed apart in the source
Description: Inhibition of RAD51 in HEK cells assessed as potentiation of cisplatin-induced cytotoxicity at 5 uM in presence of RAD51 siRNA transfected 40 hrs before compound and cisplatin exposure for 10 to 12 hrs by clonogenic survival assay relative to untreated control

[20] = molecular target: T2, DNA repair protein RAD51 homolog 1 (Homo sapiens); details: HEK293, 5 uM; remark: listed apart in the source
Description: Inhibition of RAD51 in HEK cells assessed as potentiation of cisplatin-induced cytotoxicity at 5 uM in presence of RAD51 siRNA transfected 40 hrs before compound and cisplatin exposure for 16 hrs by clonogenic survival assay relative to untreated control

[21] = molecular target: T3, DNA repair protein RAD51 homolog 1 (Mus musculus); details: MEF, 5 uM; remark: listed apart in the source
Description: Inhibition of RAD51 in MEF cells assessed as potentiation of MMC-induced cytotoxicity at 5 uM incubated for 1 hr in presence of 0.01 uM PARP1 inhibitor AZD2281 by clonogenic survival assay relative to untreated control

[22] = molecular target: T3, DNA repair protein RAD51 homolog 1 (Mus musculus); details: MEF, 5 uM; remark: listed apart in the source
Description: Inhibition of RAD51 in MEF cells assessed as potentiation of MMC-induced cytotoxicity at 5 uM incubated for 1 hr by clonogenic survival assay relative to untreated control

[23] = molecular target: T2, DNA repair protein RAD51 homolog 1 (Homo sapiens); assay: Inhibition of human RAD51-mediated DNA strand exchange at 5 to 20 uM using pBSK (+) gapped and linear dsDNA substrates by joint molecule formation assay
[24] = molecular target: T2, DNA repair protein RAD51 homolog 1 (Homo sapiens); assay: Inhibition of human RAD51 in HEK-GFP cells assessed as reduction in double-strand breaks-induced homologous recombination at 5 to 20 uM by chromosomally integrated DR-GFP reporter gene assay; type: cell-based

O=c1c2ccccc2nc(/C=C/c2cccnc2)n1Cc1ccccc1
active: inhibition [10] | inhibition [11] | inhibition [12] | inhibition [14] | inhibition [15] | inhibition [16] | inhibition [17] | inhibition [18] | inhibition [19] | inhibition [20] | inhibition [21]
3.7: logP [7]
Non-toxic: Activity (MEF [8]) | Activity (MEF [9])
inactive: inhibition [1] | inhibition [2] | Activity [3] | Activity (HEK-GFP [4]) | Activity (HEK-GFP [5]) | Activity (HEK-GFP [6]) | inhibition [13] | inhibition [22]

Cc1cc2nc3c(nc2cc1C)[C@@]1(C(=O)O)CCC3(C)C1(C)C
3.7: logP [7]
inactive: inhibition [23] | inhibition [24]

Source: ChEMBL document CHEMBL2034898, “Inhibition of homologous recombination in human cells by targeting RAD51 recombinase” (J Med Chem, 2012)
